Experiment [1] concerns the target T1, Cell division protein FtsZ (Bacillus subtilis (strain 168), UniProt P17865).
T1 sequence (P17865 whole entry): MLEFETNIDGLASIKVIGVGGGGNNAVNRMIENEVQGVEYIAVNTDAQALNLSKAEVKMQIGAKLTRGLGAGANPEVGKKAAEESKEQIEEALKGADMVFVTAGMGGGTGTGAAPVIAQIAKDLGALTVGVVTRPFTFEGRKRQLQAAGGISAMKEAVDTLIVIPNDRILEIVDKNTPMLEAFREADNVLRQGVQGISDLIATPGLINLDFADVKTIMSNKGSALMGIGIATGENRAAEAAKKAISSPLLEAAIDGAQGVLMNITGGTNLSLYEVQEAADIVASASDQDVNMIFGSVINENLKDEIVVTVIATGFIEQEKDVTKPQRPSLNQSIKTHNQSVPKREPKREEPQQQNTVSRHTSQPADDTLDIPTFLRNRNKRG
As to the kind of experiment: Inhibition of Bacillus subtilis FtsZ polymerization.

The next experiment deals with Escherichia coli. Description: Inhibition of Escherichia coli FtsZ polymerization.
Experiment [2] can be described thus: Inhibition of FtsZ polymerization.
Experiment [3] in a line: Inhibition of FtsZ GTPase.

Data on two compounds can be found in ChEMBL document CHEMBL1240458, “Probing the binding site of curcumin in Escherichia coli and Bacillus subtilis FtsZ--a structural insight to unveil antibacterial activity of curcumin” (Eur J Med Chem, 2010).

Values after ≈ are worked out from the molar mass of the structure shown. Active and inactive are the calls of the source. The calls are words filed in the database; no cut-off is given here.

What is called IC50 is the concentration needed to halve the response being measured.

In experiment [1], `COc1cc(/C=C/C(=O)CC(=O)/C=C/c2ccc(O)c(OC)c2)ccc1O` [CURCUMIN] showed an IC50 of 30 µM. For the same compound, the inhibition result with Escherichia coli was “Active”.
As to `COC(=O)CC1Cc2cc3cc(OC)c(-c4c(OC)cc5cc6c(c(O)c5c4O)C(=O)OC(CC(=O)OC)C6)c(O)c3c(O)c2C(=O)O1` (centres undefined) [VIRIDITOXIN], the IC50 in experiment [2] turned out to be 8.2 µg/mL (≈ 12.4 µM); in experiment [3] it was 7 µg/mL (≈ 10.6 µM).
